Where two headings read alike, the source gives them in different places. Numbered stars: 1 amine (or outer) side, 2 acyl side, 3 side chain; on linkers, the order of the positions; unused ones are H or OH. Bridge positions count the residues as written; N and C are the ends. Peptide text beside a SMILES is read from it. * marks the point of attachment. C20 diacid = O=C(O)CCCCCCCCCCCCCCCCCCC(=O)*; γGlu = O=C(O)[C@H](CCC(=O)[*:2])N[*:1]
What was measured:
[1] = molecular target: T1, human amylin receptor (membranes from Amylin 3(a)/CRE-luc cells) (Homo sapiens, UniProt O60896+P30988); test: ASSAY (V) binding to the human amylin receptor (SPA, 125I-rat amylin); details: for IC50: Table 4, read-out: hAmylin-R bind IC50;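 for all read-outs here: competition binding of cell membranes (35 ng/µL) mixed with SPA beads in 384-well plates at 40 µL total volume, read by scintillation counting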
T1 construct: expressed in transfected cells
T1 sequence (P30988 25-474): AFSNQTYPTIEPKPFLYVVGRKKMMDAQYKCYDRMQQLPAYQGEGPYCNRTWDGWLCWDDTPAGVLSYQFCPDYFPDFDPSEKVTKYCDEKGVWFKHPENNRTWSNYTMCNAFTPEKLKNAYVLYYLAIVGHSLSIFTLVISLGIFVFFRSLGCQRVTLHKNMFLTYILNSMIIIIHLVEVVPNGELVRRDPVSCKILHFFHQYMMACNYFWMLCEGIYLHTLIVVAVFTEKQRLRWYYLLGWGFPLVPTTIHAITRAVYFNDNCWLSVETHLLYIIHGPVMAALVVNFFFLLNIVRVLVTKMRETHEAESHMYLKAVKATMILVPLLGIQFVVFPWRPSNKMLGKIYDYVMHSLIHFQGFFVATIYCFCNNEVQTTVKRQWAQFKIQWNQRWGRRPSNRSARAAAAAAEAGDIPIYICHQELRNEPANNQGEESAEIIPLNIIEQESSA
T1 sequence (O60896 24-148 partner): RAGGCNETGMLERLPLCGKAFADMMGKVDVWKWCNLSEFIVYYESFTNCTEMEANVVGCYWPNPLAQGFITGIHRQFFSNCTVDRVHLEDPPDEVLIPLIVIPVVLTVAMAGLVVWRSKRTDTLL

[2] = ASSAY (IV) determination of solubility; format: physicochemical
Outline: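 Dissolve polypeptide in water ([…] stock); combine 1:1 with each 100 mM buffer (glycylglycine pH 3.0/4.0/5.0; bistrispropane pH 6.0/6.5/7.0/7.5/8.0); hold 18 hours at room temperature; centrifuge; quantify polypeptide by UPLC.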

[3] = molecular target: T2, human amylin 3(a) receptor (human calcitonin receptor + RAMP-3) in BHK570 cells (Homo sapiens, UniProt O60896+P30988); test: ASSAY (II)a functional assay, human amylin receptor (CRE luciferase); format: cell-based; details: for EC50: human amylin receptor functional potency, assay (II), read-out: hAmylin-R funct. EC50
T2 construct: expressed in transfected cells
Outline: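 Cells were seeded and cultured overnight, then incubated with standard or sample for 3 h at 37° C in serum-containing medium at pH 7.4. The medium was then swapped for PBS, LucLite was added for 30 min at room temperature, and luminescence was recorded. Cells were BHK with CRE-luc and calcitonin receptor, ± RAMP-3.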

[4] = Table 5, selectivity, hCTR bind IC50 / hAmylin-R bind IC50
[5] = Table 7, human binding selectivity, included for comparison
[6] = bistrispropane buffer, pH 6.5, read-out: Solubility pH 6.5 Concentration
[7] = bistrispropane buffer, pH 7.5, read-out: Solubility pH 7.5 Concentration
[8] = bistrispropane buffer, pH 6.0, read-out: Solubility pH 6.0 Concentration
[9] = bistrispropane buffer, pH 7.0, read-out: Solubility pH 7.0 Concentration
[10] = bistrispropane buffer, pH 8.0, read-out: Solubility pH 8.0 Concentration
[11] = glycylglycine buffer, pH 3.0, read-out: Solubility pH 3.0 Concentration
[12] = glycylglycine buffer, pH 4.0, read-out: Solubility pH 4.0 Concentration
[13] = glycylglycine buffer, pH 5.0, read-out: Solubility pH 5.0 Concentration
[14] = hCTR funct. EC50 / hAmylin-R funct. EC50
[15] = hCTR funct. EC50 divided by hAmylin-R funct. EC50
[16] = hCTR funct. EC50 over hAmylin-R funct. EC50
[17] = human functional selectivity: hCTR funct. EC50 / hAmylin-R funct. EC50

IC50 [1]	Ratio hCT/hAmylin binding [1, 4]	Ratio hCT/hAmylin binding [1, 5]	solubility at 18 h [2, 6]	solubility at 18 h [2, 7]	solubility at 18 h [2, 8]	solubility at 18 h [2, 9]	solubility at 18 h [2, 10]	solubility at 18 h [2, 11]	solubility at 18 h [2, 12]	solubility at 18 h [2, 13]	Ratio hCT/hAmylin funct. [3, 14]	Ratio hCT/hAmylin funct. [3, 15]	Ratio hCT/hAmylin funct. [3, 16]	EC50 [3]	Ratio hCT/hAmylin funct. [3, 17]	SMILES	further results
0.072 nM	0.5	0.5	≥ 200 µM	≥ 200 µM	≥ 200 µM	≥ 200 µM	≥ 200 µM	≥ 200 µM	≥ 200 µM	≥ 200 µM	1.1	1.1	1.1	0.082 nM	1.1	CC[C@H](C)[C@H](NC(=O)[C@H](C)NC(=O)CNC(=O)[C@H](Cc1ccccc1)NC(=O)[C@H](CC(N)=O)NC(=O)[C@@H]1CCCN1C(=O)[C@H](CO)NC(=O)[C@H](CO)NC(=O)[C@H](Cc1c[nH]cn1)NC(=O)[C@H](CCCNC(=N)N)NC(=O)[C@H](CC(C)C)NC(=O)[C@H](Cc1ccccc1)NC(=O)[C@H](CCC(=O)O)NC(=O)[C@H](C)NC(=O)[C@H](CC(C)C)NC(=O)[C@H](CCCNC(=N)N)NC(=O)[C@H](CCC(N)=O)NC(=O)[C@@H](NC(=O)[C@H](C)NC(=O)[C@@H]1CSSC[C@H](NC(=O)[C@H](CCCCN)NC(=O)CC[C@H](NC(=O)CCCCCCCCCCCCCCCCCCC(=O)O)C(=O)O)C(=O)N[C@@H](CC(N)=O)C(=O)N[C@@H]([C@@H](C)O)C(=O)N[C@@H](C)C(=O)N[C@@H]([C@@H](C)O)C(=O)N1)[C@@H](C)O)C(=O)N1CCC[C@H]1C(=O)N[C@@H](CO)C(=O)N[C@@H](CO)C(=O)N[C@H](C(=O)N[C@@H](CC(N)=O)C(=O)N[C@H](C(=O)NCC(=O)N[C@@H](CO)C(=O)N[C@@H](CC(N)=O)C(=O)N[C@H](C(=O)N1CCC[C@H]1C(N)=O)[C@@H](C)O)C(C)C)[C@@H](C)O [Example 8] ({C20 diacid-γGlu}-KCNTATCATQRLAEFLRHSSPNFGAIPSSTNVGSNTP-NH2; disulfide 2-7)	
0.105 nM	1.0	1.0	≥ 200 µM	≥ 200 µM	≥ 200 µM	≥ 200 µM	≥ 200 µM	≥ 200 µM	≥ 200 µM	≥ 200 µM	0.9	0.9	0.9	0.12 nM	0.9	CC[C@H](C)[C@H](NC(=O)[C@H](C)NC(=O)CNC(=O)[C@H](Cc1ccccc1)NC(=O)[C@H](CC(N)=O)NC(=O)[C@@H]1CCCN1C(=O)[C@H](CO)NC(=O)[C@H](CO)NC(=O)[C@H](Cc1c[nH]cn1)NC(=O)[C@H](CCCNC(=N)N)NC(=O)[C@H](CC(C)C)NC(=O)[C@H](Cc1ccccc1)NC(=O)[C@H](CCC(=O)O)NC(=O)[C@H](C)NC(=O)[C@H](CC(C)C)NC(=O)[C@H](CCCNC(=N)N)NC(=O)[C@H](CCC(N)=O)NC(=O)[C@@H](NC(=O)[C@H](C)NC(=O)[C@@H]1CSSC[C@H](NC(=O)[C@H](CCCCN)NC(=O)CC[C@H](NC(=O)CCCCCCCCCCCCCCCCCCC(=O)O)C(=O)O)C(=O)N[C@@H](CC(N)=O)C(=O)N[C@@H]([C@@H](C)O)C(=O)N[C@@H](C)C(=O)N[C@@H]([C@@H](C)O)C(=O)N1)[C@@H](C)O)C(=O)N1CCC[C@H]1C(=O)N[C@@H](CO)C(=O)N[C@@H](CO)C(=O)N[C@H](C(=O)N[C@@H](CC(N)=O)C(=O)N[C@H](C(=O)NCC(=O)N[C@@H](CO)C(=O)N[C@@H](CC(=O)O)C(=O)N[C@H](C(=O)N1CCC[C@H]1C(N)=O)[C@@H](C)O)C(C)C)[C@@H](C)O [Example 11] ({C20 diacid-γGlu}-KCNTATCATQRLAEFLRHSSPNFGAIPSSTNVGSDTP-NH2; disulfide 2-7 (inferred))	
0.597 nM	26.0	26.0	≥ 200 µM	≥ 200 µM	≥ 200 µM	≥ 200 µM	≥ 200 µM	≥ 200 µM	≥ 200 µM	≥ 200 µM		8.9	8.9	0.386 nM	8.9	CC[C@H](C)[C@H](NC(=O)[C@H](C)NC(=O)CNC(=O)[C@H](Cc1ccccc1)NC(=O)[C@H](CC(N)=O)NC(=O)[C@@H]1CCCN1C(=O)[C@H](CO)NC(=O)[C@H](CO)NC(=O)[C@H](Cc1c[nH]cn1)NC(=O)[C@H](CCCNC(=N)N)NC(=O)[C@H](CC(C)C)NC(=O)[C@H](Cc1ccccc1)NC(=O)[C@H](CCC(=O)O)NC(=O)[C@H](C)NC(=O)[C@H](CC(C)C)NC(=O)[C@H](CCCNC(=N)N)NC(=O)[C@H](CCC(N)=O)NC(=O)[C@@H](NC(=O)[C@H](C)NC(=O)[C@@H]1CSSC[C@H](NC(=O)[C@H](CCCCN)NC(=O)CC[C@H](NC(=O)CC[C@H](NC(=O)CCCCCCCCCCCCCCCCCCC(=O)O)C(=O)O)C(=O)O)C(=O)N[C@@H](CC(N)=O)C(=O)N[C@@H]([C@@H](C)O)C(=O)N[C@@H](C)C(=O)N[C@@H]([C@@H](C)O)C(=O)N1)[C@@H](C)O)C(=O)N1CCC[C@H]1C(=O)N[C@@H](CO)C(=O)N[C@@H](CO)C(=O)N[C@H](C(=O)N[C@@H](CC(N)=O)C(=O)N[C@H](C(=O)NCC(=O)N[C@@H](CO)C(=O)N[C@@H](CC(N)=O)C(=O)N[C@H](C(=O)N[C@@H](Cc1ccc(O)cc1)C(N)=O)[C@@H](C)O)C(C)C)[C@@H](C)O [Example 15] ({C20 diacid-γGlu-γGlu}-KCNTATCATQRLAEFLRHSSPNFGAIPSSTNVGSNTY-NH2; disulfide 2-7 (inferred))	Ratio hCT/hAmylin binding ([1]; Table 5a, selectivity, hCTR bind IC50 / hAmylin-R bind IC50): 26.0; Ratio hCT/hAmylin binding ([1]; Table 5b, selectivity, hCTR bind IC50 / hAmylin-R bind IC50): 26.0; Ratio hCT/hAmylin binding ([1]; Table 5c, selectivity, hCTR bind IC50 / hAmylin-R bind IC50): 26.0; Ratio hCT/hAmylin binding ([1]; Table 7a (preferred compounds), human binding selectivity, included for comparison): 26.0; Ratio hCT/hAmylin binding ([1]; ratio of human calcitonin receptor binding IC50 to human amylin receptor binding IC50): 26.0

SMILES	IC50 [1]	Ratio hCT/hAmylin binding [1, 4]	Ratio hCT/hAmylin binding [1, 5]	solubility at 18 h [2, 6]	solubility at 18 h [2, 7]	solubility at 18 h [2, 8]	solubility at 18 h [2, 9]	solubility at 18 h [2, 10]	solubility at 18 h [2, 11]	solubility at 18 h [2, 12]	solubility at 18 h [2, 13]	Ratio hCT/hAmylin funct. [3, 14]	Ratio hCT/hAmylin funct. [3, 15]	Ratio hCT/hAmylin funct. [3, 16]	EC50 [3]	Ratio hCT/hAmylin funct. [3, 17]	further results
CC[C@H](C)[C@H](NC(=O)[C@H](C)NC(=O)CNC(=O)[C@H](Cc1ccccc1)NC(=O)[C@H](CC(N)=O)NC(=O)[C@@H]1CCCN1C(=O)[C@H](CO)NC(=O)[C@H](CO)NC(=O)[C@H](Cc1c[nH]cn1)NC(=O)[C@H](CCCNC(=N)N)NC(=O)[C@H](CC(C)C)NC(=O)[C@H](Cc1ccccc1)NC(=O)[C@H](CC(=O)O)NC(=O)[C@H](C)NC(=O)[C@H](CC(C)C)NC(=O)[C@H](CCCNC(=N)N)NC(=O)[C@H](CCC(N)=O)NC(=O)[C@@H](NC(=O)[C@H](C)NC(=O)[C@@H]1CSSC[C@H](NC(=O)[C@H](CCCCN)NC(=O)CC[C@H](NC(=O)CCCCCCCCCCCCCCCCCCC(=O)O)C(=O)O)C(=O)N[C@@H](CC(N)=O)C(=O)N[C@@H]([C@@H](C)O)C(=O)N[C@@H](C)C(=O)N[C@@H]([C@@H](C)O)C(=O)N1)[C@@H](C)O)C(=O)N1CCC[C@H]1C(=O)N[C@@H](CO)C(=O)N[C@@H](CO)C(=O)N[C@H](C(=O)N[C@@H](CC(N)=O)C(=O)N[C@H](C(=O)NCC(=O)N[C@@H](CO)C(=O)N[C@@H](CC(N)=O)C(=O)N[C@H](C(=O)N1CCC[C@H]1C(N)=O)[C@@H](C)O)C(C)C)[C@@H](C)O [Example 10] ({C20 diacid-γGlu}-KCNTATCATQRLADFLRHSSPNFGAIPSSTNVGSNTP-NH2; disulfide 2-7 (inferred))	0.082 nM	1.2	1.2	≥ 200 µM	≥ 200 µM	≥ 200 µM	≥ 200 µM	≥ 200 µM	≥ 200 µM	≥ 200 µM	≥ 200 µM	1.0	1.0	1.0	0.072 nM	1.0	
